Source: paper PMC8095338 (Neuro-oncology Advances, 2021)
Several values for one entry are separate records, joined by “and”; a condition that tells them apart may be missing. Equal values may be shown once. Read-outs that look alike come from different tables or passages of the source.

Experiments:
Tissue PK, LC-MS/MS = type: in vivo, minipig; conditions: for concentration at 2 h: po
Experimental: (§1) WT (n = 8) and NF1 (n = 8) minipigs received a single human equivalent oral dose of 450 mg (7.3 mg/kg). Untreated WT (n = 4) and NF1 (n = 4) minipigs were also enrolled as controls. All animals were euthanized 2 h after drug administration. Tissue samples were collected from each animal at the same approximate locations and divided for analysis.
Selumetinib PK studies were performed in plasma, skin, sciatic nerve, optic nerve, and brain. Plasma isolation was performed as described in a previous study.[13] […] Tissues were harvested and immediately transferred to cryovials and stored at −80°C until analysis.
Standard curves and controls were generated using corresponding untreated tissue. Skin tissue was treated with collagenase, and all organ tissues were homogenized. Liquid extraction with ethyl acetate was then performed, followed by analysis. […] The chromatographic separation was performed as described.[13] Mass spectrometric detection was performed using multiple reaction monitoring in positive ionization mode. […] Ion source gases 1 and 2 were set at 50 and 50 psi, respectively; the curtain gas was at 20 psi and the collision gas at 4 psi. […] Data acquisition was performed with analyst 1.4.1 software (MDS-SCIEX).

[1] = system: ERK phosphorylation (p-ERK); assay: Tissue PD: p-ERK/ERK by capillary western (Wes); type: in vivo, minipig; conditions: for inhibition at 7.3 mg/kg: Sus scrofa, po; for p-ERK Inhibition: ND = Not detected
Experimental: as §1
PD analysis in blood was performed as described in a previous study, with some modifications.[13] […] Samples were stimulated with phorbol 12-myristate 13-acetate (PMA) (200 nM) or phosphate-buffered saline for 10 min at 37°C within 1 h of being drawn. Red blood cells were removed using standard ammonium-chloride-potassium (ACK) lysis. Peripheral blood mononuclear cells (PBMCs) were snap-frozen as dry pellets and stored at −80°C until analysis. Protein lysates from PBMCs were prepared as described in a previous study.[13] For tissues, protein lysates were prepared by transferring ~[…] of snap frozen tissue to a 1.7-mL microfuge tube containing radioimmunoprecipitation lysis buffer with protease and phosphatase inhibitors. The samples were then homogenized using a rotor-stator homogenizer for 2–4 cycles of 20 s and centrifuged for 10 min at 4°C. Concentrations were measured using the Pierce BCA Protein assay kit (Thermo #23227), according to the manufacturer’s instructions. A capillary western blot assay was performed on a Wes system (ProteinSimple 004–600) according to the manufacturer’s instructions using a 12–230 kDa Separation Module (ProteinSimple SM-W004) and Anti-Rabbit Detection Module (ProteinSimple DM-001). Lysates were loaded at 1 mg/mL and instrument default settings were used. Primary antibodies against Phospho-p44/42 ERK1/2 (p-ERK) (Cell Signaling Technologies #4370S) and p44/42 ERK1/2 (ERK) (Cell Signaling Technologies #4695S) were used at 1:100 dilution. Peaks of the appropriate molecular weight (42/44 kilodaltons) were detected in the resulting electropherograms and chemiluminescent signal was quantified by calculating the area under the peaks. The relative intensity of p-ERK to total ERK was then calculated as a ratio (p-ERK/ERK). To discriminate low p-ERK signals from background, the peak signal-to-noise (S/N) ratio given by the software was ≥10, and the peak height/baseline ratio was ≥3.[27]

p-ERK = assay: Immunohistochemistry for p-ERK in minipig tissues; type: in vivo
Experimental: Formalin-fixed paraffin-embedded minipig tissue including cerebral cortex, cross sections of optic nerve and sciatic nerve, and skin were sectioned. Immunohistochemical staining for phosphor-p44/p42 MAPK (ERK1/2) (Thr202/Tyr204) (Cell Signaling Technology Catalog #4370, Rabbit mAb, 1:100 dilution) was performed using 5 μm sections on a Thermo Fisher Scientific Autostainer 360 (Thermo Fisher Scientific). […] In the skin, epidermis was scored as no (0) or low (1) (<20 epidermal cells per 400× magnification) or high (2) (>20 epidermal cells per 400× magnification) immunoreactivity.

[2] = 2 h after single oral 7.3 mg/kg, P = .03
[3] = NF1 minipigs n = 8, 2 h after single oral 7.3 mg/kg
[4] = WT minipigs n = 8, 2 h after single oral 7.3 mg/kg
[5] = all 16 minipigs, 2 h after single oral 7.3 mg/kg
[6] = all 16 minipigs, 2 h after single oral 7.3 mg/kg, 7.3 mg/kg
[7] = individual NF1/F minipigs, 2 h after single oral 7.3 mg/kg, 7.3 mg/kg
[8] = individual NF1/M minipigs, 2 h after single oral 7.3 mg/kg, 7.3 mg/kg
[9] = individual WT/F minipigs, 2 h after single oral 7.3 mg/kg, 7.3 mg/kg
[10] = individual WT/M minipigs, 2 h after single oral 7.3 mg/kg, 7.3 mg/kg

Q: Which results are given for `Cn1cnc2c(F)c(Nc3ccc(Br)cc3Cl)c(C(=O)NOCCO)cc21` [selumetinib]?
A: mean selumetinib concentration in cerebral cortex, NF1 compared to WT minipigs (Tissue PK, LC-MS/MS; [2]): higher; mean selumetinib concentration in optic nerve, NF1 compared to WT minipigs (Tissue PK, LC-MS/MS; [2]): higher; Selumetinib concentration in tissues, Cerebral cortex, Range (NF1) (Tissue PK, LC-MS/MS; [3]): (20-105) ng/g; Selumetinib concentration in tissues, Optic nerve, Range (NF1) (Tissue PK, LC-MS/MS; [3]): (4-101) ng/g; Selumetinib concentration in tissues, Sciatic nerve, Range (NF1) (Tissue PK, LC-MS/MS; [3]): (5-36) ng/g; Selumetinib concentration in tissues, Skin, Range (NF1) (Tissue PK, LC-MS/MS; [3]): (14-155) ng/g; Selumetinib concentration in tissues, Cerebral cortex, Range (WT) (Tissue PK, LC-MS/MS; [4]): (15-76) ng/g; Selumetinib concentration in tissues, Optic nerve, Range (WT) (Tissue PK, LC-MS/MS; [4]): (7-46) ng/g; Selumetinib concentration in tissues, Sciatic nerve, Range (WT) (Tissue PK, LC-MS/MS; [4]): (6-51) ng/g; Selumetinib concentration in tissues, Skin, Range (WT) (Tissue PK, LC-MS/MS; [4]): (9-111) ng/g; Selumetinib concentration in tissues, Cerebral cortex, Range (All) (Tissue PK, LC-MS/MS; [5]): (15-105) ng/g; Selumetinib concentration in tissues, Optic nerve, Range (All) (Tissue PK, LC-MS/MS; [5]): (4-101) ng/g; Selumetinib concentration in tissues, Sciatic nerve, Range (All) (Tissue PK, LC-MS/MS; [5]): (5-51) ng/g; Selumetinib concentration in tissues, Skin, Range (All) (Tissue PK, LC-MS/MS; [5]): (9-155) ng/g; Selumetinib concentration in tissues, Cerebral cortex, Median (All) (Tissue PK, LC-MS/MS; [6]): 51 ng/g; Selumetinib concentration in tissues, Optic nerve, Median (All) (Tissue PK, LC-MS/MS; [6]): 36 ng/g; Selumetinib concentration in tissues, Sciatic nerve, Median (All) (Tissue PK, LC-MS/MS; [6]): 25 ng/g; Selumetinib concentration in tissues, Skin, Median (All) (Tissue PK, LC-MS/MS; [6]): 24 ng/g; Selumetinib concentration in tissues, Cerebral cortex (Tissue PK, LC-MS/MS; [7]): 63 ng/g and 105 ng/g and 101 ng/g and 20 ng/g; Selumetinib concentration in tissues, Optic nerve (Tissue PK, LC-MS/MS; [7]): 43 ng/g and 81 ng/g and 101 ng/g and 4 ng/g; Selumetinib concentration in tissues, Sciatic nerve (Tissue PK, LC-MS/MS; [7]): 20 ng/g and 10 ng/g and 17 ng/g and 5 ng/g; Selumetinib concentration in tissues, Skin (Tissue PK, LC-MS/MS; [7]): 36 ng/g and 155 ng/g and 14 ng/g and 17 ng/g; Selumetinib concentration in tissues, Cerebral cortex (Tissue PK, LC-MS/MS; [8]): 67 ng/g and 83 ng/g and 28 ng/g and 64 ng/g; Selumetinib concentration in tissues, Optic nerve (Tissue PK, LC-MS/MS; [8]): 59 ng/g and 34 ng/g; Selumetinib concentration in tissues, Sciatic nerve (Tissue PK, LC-MS/MS; [8]): 36 ng/g and 33 ng/g; Selumetinib concentration in tissues, Skin (Tissue PK, LC-MS/MS; [8]): 16 ng/g and 79 ng/g and 108 ng/g and 26 ng/g; Selumetinib concentration in tissues, Cerebral cortex (Tissue PK, LC-MS/MS; [9]): 26 ng/g and 42 ng/g and 76 ng/g and 47 ng/g; Selumetinib concentration in tissues, Optic nerve (Tissue PK, LC-MS/MS; [9]): 24 ng/g and 26 ng/g and 19 ng/g and 46 ng/g; Selumetinib concentration in tissues, Sciatic nerve (Tissue PK, LC-MS/MS; [9]): 46 ng/g and 38 ng/g and 36 ng/g and 16 ng/g; Selumetinib concentration in tissues, Skin (Tissue PK, LC-MS/MS; [9]): 22 ng/g and 111 ng/g and 81 ng/g and 12 ng/g; Selumetinib concentration in tissues, Cerebral cortex (Tissue PK, LC-MS/MS; [10]): 20 ng/g and 15 ng/g and 54 ng/g and 44 ng/g; Selumetinib concentration in tissues, Optic nerve (Tissue PK, LC-MS/MS; [10]): 35 ng/g and 7 ng/g and 32 ng/g and 36 ng/g; Selumetinib concentration in tissues, Sciatic nerve (Tissue PK, LC-MS/MS; [10]): 6 ng/g and 9 ng/g and 51 ng/g and 15 ng/g; Selumetinib concentration in tissues, Skin (Tissue PK, LC-MS/MS; [10]): 9 ng/g and 19 ng/g and 32 ng/g; concentration at 2 h (Tissue PK, LC-MS/MS; male, minipig, optic nerve, 7.3 mg/kg, Selumetinib concentration in tissues, Optic nerve, individual NF1/M minipigs, 2 h after single oral 7.3 mg/kg): 43 ng/g; concentration at 2 h (Tissue PK, LC-MS/MS; male, minipig, sciatic nerve, 7.3 mg/kg, Selumetinib concentration in tissues, Sciatic nerve, individual NF1/M minipigs, 2 h after single oral 7.3 mg/kg): 29 ng/g; Kp at 2 h (Tissue PK, LC-MS/MS; minipig, brain / plasma, minipigs, single oral 7.3 mg/kg, read-out: median brain–plasma ratio): 0.1; concentration at 2 h (Tissue PK, LC-MS/MS; minipig, cerebral cortex, 7.3 mg/kg, Selumetinib concentration in tissues, Cerebral cortex, Median (All), all 16 minipigs, 2 h after single oral 7.3 mg/kg): 66 ng/g; concentration at 2 h (Tissue PK, LC-MS/MS; minipig, cerebral cortex, 7.3 mg/kg, Selumetinib concentration in tissues, Cerebral cortex, Median (NF1), NF1 minipigs n = 8, 2 h after single oral 7.3 mg/kg): 66 ng/g; concentration at 2 h (Tissue PK, LC-MS/MS; minipig, cerebral cortex, 7.3 mg/kg, Selumetinib concentration in tissues, Cerebral cortex, Median (WT), WT minipigs n = 8, 2 h after single oral 7.3 mg/kg): 43 ng/g; concentration at 2 h (Tissue PK, LC-MS/MS; minipig, optic nerve, 7.3 mg/kg, Selumetinib concentration in tissues, Optic nerve, Median (All), all 16 minipigs, 2 h after single oral 7.3 mg/kg): 43 ng/g; concentration at 2 h (Tissue PK, LC-MS/MS; minipig, optic nerve, 7.3 mg/kg, Selumetinib concentration in tissues, Optic nerve, Median (NF1), NF1 minipigs n = 8, 2 h after single oral 7.3 mg/kg): 43 ng/g; concentration at 2 h (Tissue PK, LC-MS/MS; minipig, optic nerve, 7.3 mg/kg, Selumetinib concentration in tissues, Optic nerve, Median (WT), WT minipigs n = 8, 2 h after single oral 7.3 mg/kg): 29 ng/g; concentration at 2 h (Tissue PK, LC-MS/MS; minipig, 7.3 mg/kg, selumetinib concentration, range over all tissues, cerebral cortex, optic nerve, sciatic nerve, skin, all minipigs, 2 h after single oral 7.3 mg/kg): 4 to 155 ng/g; concentration at 2 h (Tissue PK, LC-MS/MS; minipig, sciatic nerve, 7.3 mg/kg, Selumetinib concentration in tissues, Sciatic nerve, Median (All), all 16 minipigs, 2 h after single oral 7.3 mg/kg): 23 ng/g; concentration at 2 h (Tissue PK, LC-MS/MS; minipig, sciatic nerve, 7.3 mg/kg, Selumetinib concentration in tissues, Sciatic nerve, Median (NF1), NF1 minipigs n = 8, 2 h after single oral 7.3 mg/kg): 25 ng/g; concentration at 2 h (Tissue PK, LC-MS/MS; minipig, sciatic nerve, 7.3 mg/kg, Selumetinib concentration in tissues, Sciatic nerve, Median (WT), WT minipigs n = 8, 2 h after single oral 7.3 mg/kg): 26 ng/g; concentration at 2 h (Tissue PK, LC-MS/MS; minipig, skin, 7.3 mg/kg, Selumetinib concentration in tissues, Skin, Median (All), all 16 minipigs, 2 h after single oral 7.3 mg/kg): 34 ng/g; concentration at 2 h (Tissue PK, LC-MS/MS; minipig, skin, 7.3 mg/kg, Selumetinib concentration in tissues, Skin, Median (NF1), NF1 minipigs n = 8, 2 h after single oral 7.3 mg/kg): 56 ng/g; concentration at 2 h (Tissue PK, LC-MS/MS; minipig, skin, 7.3 mg/kg, Selumetinib concentration in tissues, Skin, Median (WT), WT minipigs n = 8, 2 h after single oral 7.3 mg/kg): 21 ng/g; inhibition at 7.3 mg/kg ([1]; 2 h, NF1 minipigs, cerebral cortex, 2 h after single oral 7.3 mg/kg, vs untreated controls, change not significant, read-out: p-ERK Inhibition): 71%; inhibition at 7.3 mg/kg ([1]; 2 h, NF1 minipigs, optic nerve, 2 h after single oral 7.3 mg/kg, vs untreated controls, read-out: p-ERK Inhibition): 60%; inhibition at 7.3 mg/kg ([1]; 2 h, NF1 minipigs, sciatic nerve, 2 h after single oral 7.3 mg/kg, vs untreated controls, read-out: p-ERK Inhibition): 60%; inhibition at 7.3 mg/kg ([1]; 2 h, WT minipigs, sciatic nerve, 2 h after single oral 7.3 mg/kg, vs untreated controls, read-out: p-ERK Inhibition): 67%; inhibition at 7.3 mg/kg ([1]; 2 h, all minipigs (WT and NF1), 2 h after single oral 7.3 mg/kg, read-out: mean inhibition of p-ERK in sciatic nerve): 64%; inhibition at 7.3 mg/kg ([1]; 2 h, all minipigs (WT and NF1), 2 h after single oral 7.3 mg/kg, read-out: mean inhibition of p-ERK in skin): 95%; p-ERK Inhibition ([1]; WT minipigs, cerebral cortex (subcortical white matter), 2 h after single oral 7.3 mg/kg, vs untreated controls): not observed; p-ERK Inhibition ([1]; WT minipigs, optic nerve, 2 h after single oral 7.3 mg/kg, vs untreated controls): not observed; mean inhibition of p-ERK in skin ([1]; all minipigs (WT and NF1), 2 h after single oral 7.3 mg/kg, 7.3 mg/kg): 94%; p-ERK level in skin after selumetinib ([1]; all minipigs, single oral 7.3 mg/kg, 2 h, compared to untreated minipigs): nearly undetectable levels; p-ERK by IHC in glial cells (p-ERK; NF1 minipig tissues, treated vs untreated): reduction in ERK phosphorylation; treated NF1 animals without reduction in ERK phosphorylation by IHC (p-ERK; cerebral white matter tracts, NF1 minipigs): 4 of 8
